Read-outs that look alike come from different tables or passages of the source.
What was measured:
[1] = in vitro; conditions: African green monkey
Method: (§1) The assay method is available in the Supinfo S1.
(§2) African green monkey kidney epithelial (Vero) cells (Cellonex, South Africa) were cultured and the basal cytotoxicity of the synthesized compounds with antileishmanial and/or anticancer activity was evaluated using the resazurin assay, as described in Mangwegape et al. ^4 Emetine served as the standard cytotoxic drug. Further use of reference drugs, controls, data analysis, calculations and IC50 determinations were identical to that of the antileishmanial assay.

[2] = system: L. donovani strain 1S promastigotes; test: Antipromastigote assay (resazurin); type: cell-based; conditions: L. donovani 1S, read-out: 1S IC50 ± SD, Promastigote
Method: (§3) The antipromastigote activity of synthesized compounds was evaluated as described previously by Mangwegape et al. ([2021]) using three strains of L. donovani (1S (MHOM/SD/62/1S) and 9515 (MHOM/IN/95/9515)) and L. major (IR‐173 [MHOM/IR/−173]). The assay method is available in the Supinfo S1.
(§4) The antipromastigote activity of synthesized compounds was evaluated using a modified, resazurin-based method of Kulshrestha et al. ^2 and Siqueira-Neto et al. ^3 and on three Leishmania strains. Leishmania donovani (strains 1S (MHOM/SD/62/1S) and 9515 (MHOM/IN/95/9515)) and L. major (strain IR-173 (MHOM/IR/-173)) promastigotes were cultured in M199 with Hank's salts and 0.68 mM L-glutamine (Sigma Aldrich) supplemented with 50 U/mL Penicillin/Streptomycin solution (Lonza), 4.2 mM sodium bicarbonate, 25 mM Hepes, 10% fetal bovine serum, 0.25% hemin, 0.1% biotin, and 10 mM adenine (Sigma Aldrich) and the pH adjusted to 7.3 – 7.4. The promastigotes were maintained at 25 °C.
(§5) Amphothericin B (10 μM) served as the standard drug and growth medium without parasites served as the blank. The plates were incubated for 48 hours at 25 °C in humidified atmosphere. After incubation, 50 μL of resazurin solution (0.01% in PBS) was added to each well and the plates were further incubated at 25 °C in the dark for 24 hours. Absorbance was measured at 570 nm and 600 nm using the Thermofisher Scientific GO Multiscan plate reader. Data analysis was performed for each biological replicate using SkanIt 4.0 Research Edition software. Background absorbance of resazurin (600 nm) was subtracted from the absorbance values of resorufin (570 nm). The mean absorbance calculated and the percentage growth inhibition and cell viability were determined by the following equations: […]
(§6) The IC50 and Z-score were determined for each compound’s three biological replicates using the cell viability % values and GraphPad Prism 5. The mean IC50 of the biological replicates with standard deviation (SD) served as the final IC50 of each compound.

[3] = system: L. major strain IR‐173 promastigotes; test: Antipromastigote assay (resazurin); type: cell-based; conditions: L. major IR‐173, read-out: Antileishmanial activity, IC50 ± SD, Promastigote
Method: as §3, §4, §5, §6

[4] = system: L. donovani strain 1S amastigotes; test: Anti-amastigote assay (intramacrophage, THP-1 host, resazurin); type: cell-based; conditions: for IC50: L. donovani 1S, read-out: 1S IC50 ± SD, Amastigote
Method: (§7) The activities of synthesized compounds against the intramacrophage parasites of the three Leishmania strains were evaluated using a modified, resazurin‐based method (Jain et al., [2012]; Njanpa et al., [2021]). Suspension cultures of human acute monocytic leukemia (THP‐1) cells were maintained in RPMI‐1640 medium (Sigma Aldrich) supplemented with 10% FBS and 1% penicillin–streptomycin, at 37°C and 5% CO2 in a humidified atmosphere. Duplicate 96‐well plates (for respective anti‐amastigote and cytotoxicity assays) were seeded with 200 μl of a 2.5 × 10^5 cells/ml suspension treated with 25 ng/ml phorbol 12‐myristate 13‐acetate (PMA), followed by 48‐h incubation to promote differentiation into adherent macrophages.
(§8) For the anti‐amastigote assay, differentiated plates were carefully washed with PBS, followed by the addition of 200 μl of stationary phase promastigotes in RPMI 1640 medium with 2% FBS. An MOI of 30:1 was used for all three Leishmania strains. The parasite‐treated plates were incubated for 24 h at 32°C (L. major) or 37°C (L. donovani) and 5% CO2 to promote infection of the macrophages. […] Blanks were represented by growth medium without cells, as well as parasite‐free THP‐1 cells. The treated plates were incubated for 72 h.
(§9) After incubation, the plates were gently washed three times with PBS to remove any remaining extracellular parasites. The wells were then treated with 20 μl of 0.05% sodium dodecyl sulfate in PBS for 30 s to lyse the host macrophages. Lysis was terminated by adding 180 μl promastigote growth medium with 10% FBS. To initiate the resazurin assay, 10 μl of resazurin solution (0.025% in PBS) was added to all wells and the plates were incubated for 24 h at 32°C (L. major) or 37°C (L. donovani) and 5% CO2. Absorbance measurements, calculations, and IC50 determinations were performed as described for the antipromastigote assay (Supinfo S1).

[5] = system: L. major strain IR‐173 amastigotes; test: as above; type: cell-based; conditions: for IC50: read-out: Antileishmanial activity, IC50 ± SD, Amastigote
Method: as §7, §8, §9

[6] = system: L. donovani strain 9515 amastigotes; test: as above; type: cell-based; conditions: for IC50: L. donovani 9515, read-out: 9515 IC50 ± SD, Amastigote
Method: as §7, §8, §9

[7] = system: Vero cells; test: Basal cytotoxicity, resazurin assay; conditions: read-out: Cytotoxicity, IC50 ± SD, Vero; Vero cells
Method: as §1, §2

[8] = system: L. donovani strain 9515 promastigotes; test: Antipromastigote assay (resazurin); type: cell-based; conditions: L. donovani 9515, read-out: 9515 IC50 ± SD, Promastigote
Method: as §3, §4, §5, §6

[9] = Cytotoxicity on differentiated host THP-1 macrophages, resazurin assay; type: cell-based, human; conditions: human, PMA-differentiated THP-1 macrophages, read-out: Cytotoxicity, IC50 ± SD, THP‐1
Method: Duplicate 96‐well plates (for respective anti‐amastigote and cytotoxicity assays) were seeded with 200 μl of a 2.5 × 10^5 cells/ml suspension treated with 25 ng/ml phorbol 12‐myristate 13‐acetate (PMA), followed by 48‐h incubation to promote differentiation into adherent macrophages.
Cytotoxicity of the compounds on the differentiated host THP-1 cells were also evaluated. As mentioned, duplicate plates of differentiated THP-1 cells were prepared during the anti-amastigote assay. These plates were incubated for 72 hours to differentiate, instead of replacing the growth medium with parasite-containing medium after 48 hours. […] Blanks were growth medium without cells. The treated plates were incubated for 72 hours, followed by the addition of 50 μL of resazurin solution (0.01% in PBS) to each well and 24-hour incubation.

[10] = system: A375 melanoma cells; test: Anticancer assay (resazurin); type: cell-based, human; conditions: n = 3; read-out: Anticancer activity, IC50 ± SD, A375
Method: (§10) The anticancer activities of synthesized compounds were evaluated using a resazurin‐based assay (Czekanska, [2011]). Accordingly, a screening method similar to that of the cytotoxicity assay was used to screen for anticancer activity, using human melanoma (A375), promyelocytic leukemia (Clone 15 HL‐60), lung cancer (A549), and breast cancer (MCF7) cells. The culture and assay methods are provided in the Supinfo S1.
(§11) The potential anticancer activities of synthesized compounds were screened using the resazurin assay. ^5 Breast adenocarcinoma (MCF7, ATCC® HTB-22™) and human melanoma (A375, ATCC® CRL-1619™) cells were cultured in Hyclone Dulbecco's modified Eagle’s medium with high glucose (Separations) supplemented with 10 % fetal bovine serum (FBS) (Thermofisher Scientific) and 1 % L-glutamine, penicillin-streptomycin and non-essential amino acids (Lonza). Human lung carcinoma (A549, ATCC®, CCL-185™) cells were cultured in Ham’s F12K medium supplemented with 10% FBS and 1% L-glutamine, penicillin-streptomycin and non-essential amino acids. Human promyelocytic leukemia (Clone 15 HL-60, ATCC® CRL-1946™) cells were cultured in RPMI-1640 medium (Sigma Aldrich) supplemented with 10% FBS and 1% penicillin-streptomycin. The cell lines were maintained in a humidified atmosphere at 37 °C and 5% CO2.
(§12) For the resazurin assay, 96 well plates were prepared with 100 μL of 100 000 cells/mL MCF7 cell suspension, 100 μL of 50 000 cells/mL A375 cell suspension, 100 μL of 25 000 cells/mL A549 cell suspension, or 50 μL of 50 000 cells/mL HL-60 cell suspension. The MCF7, A375 and A549 cell plates were incubated for 24 hours to allow adherence of the cells to the plate surface, after which the growth medium is replaced with 100 μL medium containing compounds. […] The cell lines were treated with: (i) parthenolide (Sigma Aldrich) (positive control); (ii) growth medium and solvent (negative control to compensate for possible solvent effects); (iii) growth medium and experimental compound solutions. […] Blanks contained growth medium without cells. The treated plates were incubated for 48 hours.
(§13) To initiate the resazurin assay, 50 μL of sterile-filtered resazurin sodium salt (Sigma Aldrich) solution (0.01 % in PBS) was added and the plates incubated for 2 hours (MCF7, A375 and A549 cells) or 24 hours (HL-60 cells). Absorbance was measured at 570 and 600 nm using the Thermofisher Scientific GO Multiscan plate reader. Data analysis was performed for each biological replicate using SkanIt 4.0 Research Edition software. Further data analysis, calculations and IC50 determinations were identical to that of the antileishmanial and cytotoxicity assays.
(§14) For the final IC50 of each compound, the mean IC50 of the biological replicates were calculated with standard deviation (SD).

[11] = system: Clone 15 HL‐60 promyelocytic leukemia cells; test: Anticancer assay (resazurin); type: cell-based, human; conditions: n = 3; read-out: Anticancer activity, IC50 ± SD, Clone 15 HL‐60
Method: as §10, §11, §12, §13, §14

**Q.** Which IC50 [1] does the source give for `C[C@@H]1[C@H](O)[C@@H](C)/C=C/C=C/C=C/C=C/C=C/C=C/C=C/[C@H](O[C@@H]2O[C@H](C)[C@@H](O)[C@H](N)[C@@H]2O)C[C@@H]2O[C@](O)(C[C@@H](O)C[C@@H](O)[C@H](O)CC[C@@H](O)C[C@@H](O)CC(=O)O[C@H]1C)C[C@H](O)[C@H]2C(=O)O` [AMB, Amphotericin B, reference compound] here?
**A.** 57800 ± 3220 nM

**Q.** What about the IC50 ([2]; Leishmania donovani) of the same molecule?
**A.** 20 nM

**Q.** What about the IC50 ([3]; Leishmania major) of the same molecule?
**A.** 30 ± 6 nM

**Q.** What about the IC50 ([4]; Leishmania donovani, THP-1) of the same molecule?
**A.** 40 nM

**Q.** What about the IC50 ([5]; Leishmania major, THP-1, L. major IR‐173) of the same molecule?
**A.** 30 nM

**Q.** What about the IC50 ([6]; Leishmania donovani, THP-1) of the same molecule?
**A.** 50 nM

**Q.** For `CC[C@H]1CN2CCc3cc(OC)c(OC)cc3[C@@H]2C[C@@H]1C[C@H]1NCCc2cc(OC)c(OC)cc21` [EM, emetine, reference compound], which IC50 [7] is on record?
**A.** 80 ± 9 nM

**Q.** With `NC(=O)N/N=C/c1ccc([N+](=O)[O-])o1` [NFZ, nitrofurazone, reference compound] as the molecule, how does the IC50 ([1]; Vero cells (kidney epithelial)) read?
**A.** > 100000 nM

**Q.** And the IC50 ([8]; Leishmania donovani)?
**A.** 1850 ± 140 nM

**Q.** What about the IC50 ([2]; Leishmania donovani) of the same molecule?
**A.** 6540 ± 930 nM

**Q.** And the IC50 ([3]; Leishmania major)?
**A.** 1850 ± 60 nM

**Q.** And the “Selectivity index SI4” value ([4]; L. donovani 1S: IC50 THP‐1/IC50 amastigote)?
**A.** > 40

**Q.** And the “Selectivity index SI3” value ([4]; L. donovani 1S: IC50 Vero/IC50 amastigote)?
**A.** > 40

**Q.** What about the “Specificity index SpI2” value ([4]; L. donovani 1S: IC50 promastigote/IC50 amastigote) of the same molecule?
**A.** 2.62

**Q.** And the IC50 ([4]; Leishmania donovani, THP-1)?
**A.** 2500 ± 400 nM

**Q.** And the “Specificity index SpI1” value ([5]; L. major IR‐173: IC50 promastigote/IC50 amastigote)?
**A.** 0.32

**Q.** What about the “Selectivity index SI6” value ([6]; L. donovani 9515: IC50 THP‐1/IC50 amastigote) of the same molecule?
**A.** > 20

**Q.** What about the “Selectivity index SI5” value ([6]; L. donovani 9515: IC50 Vero/IC50 amastigote) of the same molecule?
**A.** > 20

**Q.** What about the “Specificity index SpI3” value ([6]; L. donovani 9515: IC50 promastigote/IC50 amastigote) of the same molecule?
**A.** 0.37

**Q.** And the IC50 at 72 h [9]?
**A.** > 100000 nM

**Q.** With “(E)-4-Fluoro-N'-([5-nitrofuran-2-yl]methylene)-(1,1'-biphenyl)-4-sulfonohydrazide [2i]” as the molecule, how does the IC50 [7] read?
**A.** 29200 ± 5410 nM

**Q.** And the IC50 [8]?
**A.** > 10000 nM

**Q.** What about the IC50 [2] of the same molecule?
**A.** 9380 ± 820 nM

**Q.** And the IC50 [3]?
**A.** > 10000 nM

**Q.** What about the IC50 [4] of the same molecule?
**A.** > 10000 nM

**Q.** And the IC50 ([5]; L. major IR‐173)?
**A.** > 10000 nM

**Q.** And the IC50 [6]?
**A.** > 10000 nM

**Q.** And the IC50 [10]?
**A.** > 10000 nM

**Q.** What about the IC50 [11] of the same molecule?
**A.** > 10000 nM
